Tested on: anterior ocular segment
Assay: Test Example 7 (2)(c): ocular local toxicity, visual observation on the anterior ocular segment, 28 days instillation
Type: in vivo, Japanese white rabbits
Design: Cornea (opacity x area), numerical rating / Iris, numerical rating / Conjunctiva (A) redness of palpebral conjunctiva, numerical rating / Conjunctiva (B) edema of palpebral conjunctiva, numerical rating / Conjunctiva (C) redness of bulbar conjunctiva, numerical rating / Conjunctiva (D) nictitating membrane, numerical rating / Conjunctiva (E) discharge, numerical rating / Total numerical rating: scale not given here
Procedure: (2) Ocular local toxicity test in rabbits of 1.0% and 0.5% ophthalmic solutions of amosulalol hydrochloride by consecutive instillation for 28 days:
With 15 male Japanese white rabbits divided into 3 groups each consisting of 5 rabbits, 1.0% and 0.5% ophthalmic solutions of amosulalol hydrochloride as well as physiological saline as a control were applied in one drop (0.05 ml) per time to the right eye of each rabbit alone, four times a day at a regular interval of 2.5 hours, for 28 days consecutively with the left eye being left untreated.
(c) Visual observation on the anterior ocular segment; Based on the below-described criteria for assessment of ocular injuries (Gendai no Rinsho (Present-Day Clinics) Vol. 4, No. 4, pp. 227-289, 1970), numerical rating was performed on 1.0% and 0.5% ophthalmic solutions of amosulalol hydrochloride before instillation as well as on the day (Day 1) of initiating the instillation and on the 2nd, 4th, 7th, 14th, 21st, 28th days after initiating the instillation but each time after completion of the instillation and on the morning of the last instillation (29th day). With reference to the results of numerical rating, a numerical rating of not less than 1 as determined on either of the items was understood to be judged "injurious to the eye" while numerical ratings of 0 and 0.5 were considered "not injurious to the eye".
Criteria for assessment of ocular injuries:
Tables 5 and 6 show the results of the visual observation on the anterior ocular section, being specified above under Item (c), as obtained with 1.0% and 0.5% ophthalmic solutions of amosulalol hydrochloride, respectively, wherein each value given represents a mean for 5 cases.
In Tables 5 and 6, the numerical rating of cornea means the value obtained by multiplying a value in "(A) Degree of Opacity" by that of "(B) Area of opacity" in the above-described "Criteria for assessment of ocular injuries".

[1] = 0.5% solution, before instillation, mean of 5
[2] = 0.5% solution, day 1, mean of 5
[3] = 0.5% solution, day 2, mean of 5
[4] = 0.5% solution, day 4, mean of 5
[5] = 0.5% solution, day 7, mean of 5
[6] = 0.5% solution, day 14, mean of 5
[7] = 0.5% solution, day 21, mean of 5
[8] = 0.5% solution, day 28, mean of 5
[9] = 0.5% solution, day 29, mean of 5
[10] = 1.0% solution, before instillation, mean of 5
[11] = 1.0% solution, day 1, mean of 5
[12] = 1.0% solution, day 2, mean of 5
[13] = 1.0% solution, day 4, mean of 5
[14] = 1.0% solution, day 7, mean of 5
[15] = 1.0% solution, day 14, mean of 5
[16] = 1.0% solution, day 21, mean of 5
[17] = 1.0% solution, day 28, mean of 5
[18] = 1.0% solution, day 29, mean of 5

For COc1ccccc1OCCNCC(O)c1ccc(C)c(S(N)(=O)=O)c1.Cl (centres unmarked) [amosulalol hydrochloride, 5-[1-hydroxy-2-[2-(2-methoxyphenoxy)ethylamino]ethyl]-2-methylbenzenesulfonamide hydrochloride], the “Conjunctiva (A) redness of palpebral conjunctiva, numerical rating” value (from here on “Conjunctiva (A) redness”) [1] was 0, the “Conjunctiva (B) edema of palpebral conjunctiva, numerical rating” value (from here on “Conjunctiva (B) edema”) [1] was 0 and the “Conjunctiva (C) redness of bulbar conjunctiva, numerical rating” value (“Conjunctiva (C) redness” below) [1] was 0. For the same molecule, the “Conjunctiva (D) nictitating membrane, numerical rating” value (“Conjunctiva (D) nictitating membrane” below) [1] was 0, the “Conjunctiva (E) discharge, numerical rating” value (shortened to “Conjunctiva (E) discharge”) [1] was 0 and the “Cornea (opacity x area), numerical rating” value (from here on “Cornea (opacity x area)”) [1] was 0. The “Iris, numerical rating” value [1] was 0, the Total numerical rating [1] was 0 and the “Conjunctiva (A) redness” value [2] was 0. The “Conjunctiva (B) edema” value [2] was 0, the “Conjunctiva (C) redness” value [2] was 0.4 and the “Conjunctiva (D) nictitating membrane” value [2] was 0. The “Conjunctiva (E) discharge” value [2] was 0, the “Cornea (opacity x area)” value [2] was 0 and the “Iris, numerical rating” value [2] was 0. The Total numerical rating [2] was 0.4, the “Conjunctiva (A) redness” value [3] was 0 and the “Conjunctiva (B) edema” value [3] was 0. The “Conjunctiva (C) redness” value [3] was 0.4, the “Conjunctiva (D) nictitating membrane” value [3] was 0 and the “Conjunctiva (E) discharge” value [3] was 0. For the same molecule, the “Cornea (opacity x area)” value [3] was 0, the “Iris, numerical rating” value [3] was 0 and the Total numerical rating [3] was 0.4. The “Conjunctiva (A) redness” value [4] was 0, the “Conjunctiva (B) edema” value [4] was 0 and the “Conjunctiva (C) redness” value [4] was 0.2. For the same molecule, the “Conjunctiva (D) nictitating membrane” value [4] was 0, the “Conjunctiva (E) discharge” value [4] was 0 and the “Cornea (opacity x area)” value [4] was 0. The “Iris, numerical rating” value [4] was 0, the Total numerical rating [4] was 0.2 and the “Conjunctiva (A) redness” value [5] was 0. The “Conjunctiva (B) edema” value [5] was 0, the “Conjunctiva (C) redness” value [5] was 0.2 and the “Conjunctiva (D) nictitating membrane” value [5] was 0. The “Conjunctiva (E) discharge” value [5] was 0, the “Cornea (opacity x area)” value [5] was 0 and the “Iris, numerical rating” value [5] was 0. The Total numerical rating [5] was 0.2, the “Conjunctiva (A) redness” value [6] was 0 and the “Conjunctiva (B) edema” value [6] was 0. The “Conjunctiva (C) redness” value [6] was 0.2, the “Conjunctiva (D) nictitating membrane” value [6] was 0 and the “Conjunctiva (E) discharge” value [6] was 0. For the same molecule, the “Cornea (opacity x area)” value [6] was 0, the “Iris, numerical rating” value [6] was 0 and the Total numerical rating [6] was 0.2. The “Conjunctiva (A) redness” value [7] was 0, the “Conjunctiva (B) edema” value [7] was 0 and the “Conjunctiva (C) redness” value [7] was 0.1. The “Conjunctiva (D) nictitating membrane” value [7] was 0, the “Conjunctiva (E) discharge” value [7] was 0 and the “Cornea (opacity x area)” value [7] was 0. The “Iris, numerical rating” value [7] was 0, the Total numerical rating [7] was 0.1 and the “Conjunctiva (A) redness” value [8] was 0. The “Conjunctiva (B) edema” value [8] was 0, the “Conjunctiva (C) redness” value [8] was 0.1 and the “Conjunctiva (D) nictitating membrane” value [8] was 0. The “Conjunctiva (E) discharge” value [8] was 0, the “Cornea (opacity x area)” value [8] was 0 and the “Iris, numerical rating” value [8] was 0. For the same molecule, the Total numerical rating [8] was 0.1, the “Conjunctiva (A) redness” value [9] was 0 and the “Conjunctiva (B) edema” value [9] was 0. The “Conjunctiva (C) redness” value [9] was 0, the “Conjunctiva (D) nictitating membrane” value [9] was 0 and the “Conjunctiva (E) discharge” value [9] was 0. The “Cornea (opacity x area)” value [9] was 0, the “Iris, numerical rating” value [9] was 0 and the Total numerical rating [9] was 0. The “visual observation of the anterior ocular segment” value (1.0% and 0.5% ophthalmic solutions, 4 times a day, 28 days) was “no abnormality”, the “Conjunctiva (A) redness” value [10] was 0 and the “Conjunctiva (B) edema” value [10] was 0. The “Conjunctiva (C) redness” value [10] was 0, the “Conjunctiva (D) nictitating membrane” value [10] was 0 and the “Conjunctiva (E) discharge” value [10] was 0. The “Cornea (opacity x area)” value [10] was 0, the “Iris, numerical rating” value [10] was 0 and the Total numerical rating [10] was 0. For the same molecule, the “Conjunctiva (A) redness” value [11] was 0.2, the “Conjunctiva (B) edema” value [11] was 0 and the “Conjunctiva (C) redness” value [11] was 0.5. The “Conjunctiva (D) nictitating membrane” value [11] was 0, the “Conjunctiva (E) discharge” value [11] was 0 and the “Cornea (opacity x area)” value [11] was 0. For the same molecule, the “Iris, numerical rating” value [11] was 0, the Total numerical rating [11] was 0.7 and the “Conjunctiva (A) redness” value [12] was 0.2. The “Conjunctiva (B) edema” value [12] was 0, the “Conjunctiva (C) redness” value [12] was 0.5 and the “Conjunctiva (D) nictitating membrane” value [12] was 0. For the same molecule, the “Conjunctiva (E) discharge” value [12] was 0, the “Cornea (opacity x area)” value [12] was 0 and the “Iris, numerical rating” value [12] was 0. The Total numerical rating [12] was 0.7, the “Conjunctiva (A) redness” value [13] was 0.1 and the “Conjunctiva (B) edema” value [13] was 0. The “Conjunctiva (C) redness” value [13] was 0.5, the “Conjunctiva (D) nictitating membrane” value [13] was 0 and the “Conjunctiva (E) discharge” value [13] was 0. The “Cornea (opacity x area)” value [13] was 0, the “Iris, numerical rating” value [13] was 0 and the Total numerical rating [13] was 0.6. The “Conjunctiva (A) redness” value [14] was 0.1, the “Conjunctiva (B) edema” value [14] was 0 and the “Conjunctiva (C) redness” value [14] was 0.3. The “Conjunctiva (D) nictitating membrane” value [14] was 0, the “Conjunctiva (E) discharge” value [14] was 0 and the “Cornea (opacity x area)” value [14] was 0. The “Iris, numerical rating” value [14] was 0, the Total numerical rating [14] was 0.4 and the “Conjunctiva (A) redness” value [15] was 0.1. The “Conjunctiva (B) edema” value [15] was 0, the “Conjunctiva (C) redness” value [15] was 0.3 and the “Conjunctiva (D) nictitating membrane” value [15] was 0. For the same molecule, the “Conjunctiva (E) discharge” value [15] was 0, the “Cornea (opacity x area)” value [15] was 0 and the “Iris, numerical rating” value [15] was 0. The Total numerical rating [15] was 0.4, the “Conjunctiva (A) redness” value [16] was 0.1 and the “Conjunctiva (B) edema” value [16] was 0. For the same molecule, the “Conjunctiva (C) redness” value [16] was 0.3, the “Conjunctiva (D) nictitating membrane” value [16] was 0 and the “Conjunctiva (E) discharge” value [16] was 0. For the same molecule, the “Cornea (opacity x area)” value [16] was 0, the “Iris, numerical rating” value [16] was 0 and the Total numerical rating [16] was 0.4. The “Conjunctiva (A) redness” value [17] was 0.1, the “Conjunctiva (B) edema” value [17] was 0 and the “Conjunctiva (C) redness” value [17] was 0.3. The “Conjunctiva (D) nictitating membrane” value [17] was 0, the “Conjunctiva (E) discharge” value [17] was 0 and the “Cornea (opacity x area)” value [17] was 0. For the same molecule, the “Iris, numerical rating” value [17] was 0, the Total numerical rating [17] was 0.4 and the “Conjunctiva (A) redness” value [18] was 0. The “Conjunctiva (B) edema” value [18] was 0, the “Conjunctiva (C) redness” value [18] was 0 and the “Conjunctiva (D) nictitating membrane” value [18] was 0. The “Conjunctiva (E) discharge” value [18] was 0, the “Cornea (opacity x area)” value [18] was 0 and the “Iris, numerical rating” value [18] was 0. The Total numerical rating [18] was 0 and the “side effects such as ocular irritation” value (ophthalmic solution) was “free from side effects such as ocular irritation”.

Source: patent US5663205A, “Pharmaceutical composition for use in glaucoma treatment” (Senju Pharmaceutical Co. Ltd., priority 1992, dated 1997)
